Experimental data published in PubChem BioAssay (NCI).
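Exposure lasted 48 hours, with cells grown in 96-well plates and compounds tested at five concentrations. Abbreviation: GI50, concentration required for 50% inhibition of growth. TGI marks complete inhibition of growth.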

Experiments:
Assay in all cases: NCI-60 cell line screen, 48 h
[1] = tested on: OVCAR-4 ovarian
[2] = tested on: OVCAR-5 ovarian
[3] = tested on: MDA-MB-435
[4] = tested on: SNB-19 CNS
[5] = tested on: SN12C renal
[6] = tested on: SW-620 colon
[7] = tested on: TK-10 renal
[8] = tested on: MDA-MB-231 breast
[9] = tested on: MOLT-4 leukemia
[10] = tested on: UACC-257 melanoma
[11] = tested on: HT29 colon
[12] = tested on: SK-MEL-5 melanoma
[13] = tested on: SK-MEL-28 melanoma
[14] = tested on: M14 melanoma
[15] = tested on: SR leukemia
[16] = tested on: NCI-H460 lung
[17] = tested on: T-47D breast
[18] = tested on: SF-295 CNS
[19] = tested on: SF-268 CNS
[20] = tested on: NCI-H226 lung
[21] = tested on: K-562 leukemia
[22] = tested on: CAKI-1 renal
[23] = tested on: RPMI-8226 leukemia
[24] = tested on: LOX IMVI melanoma
[25] = tested on: SK-MEL-2 melanoma
[26] = tested on: HOP-92 NSCLC
[27] = tested on: NCI/ADR-RES ovarian
[28] = tested on: SK-OV-3 ovarian
[29] = tested on: DU-145 prostate
[30] = tested on: SNB-75 CNS
[31] = tested on: SF-539 CNS
[32] = tested on: UO-31 renal
[33] = tested on: MALME-3M melanoma
[34] = tested on: RXF 393 renal
[35] = tested on: BT-549 breast
[36] = tested on: OVCAR-8 ovarian
[37] = tested on: CCRF-CEM leukemia
[38] = tested on: MCF7 breast
[39] = tested on: UACC-62 melanoma
[40] = tested on: HCT-15 colon
[41] = tested on: PC-3 prostate
[42] = tested on: HL-60(TB) leukemia
[43] = tested on: HCC-2998 colon
[44] = tested on: KM12 colon
[45] = tested on: NCI-H23 lung
[46] = tested on: COLO 205 colon
[47] = tested on: U251 CNS
[48] = tested on: ACHN renal
[49] = tested on: HS 578T breast
[50] = tested on: A549 NSCLC
[51] = tested on: HCT-116 colon
[52] = tested on: EKVX NSCLC
[53] = tested on: HOP-62 NSCLC
[54] = tested on: OVCAR-3 ovarian
[55] = tested on: IGROV1 ovarian
[56] = tested on: NCI-H522 lung
[57] = tested on: A498 renal
[58] = tested on: 786-0 renal

Work on `Nc1nc2c(c3cnccc13)C(c1cccc(Cl)c1)Cc1cnccc1-2` (configuration not stated) yielded a GI50 [1] of 2.23 µM, a TGI [1] of 41 µM and a GI50 [2] of 0.706 µM. It also gave a TGI [2] of 18.6 µM, a GI50 [3] of 0.21 µM and a TGI [3] of 1.46 µM. The GI50 [4] was 0.453 µM, the TGI [4] was 12.4 µM and the GI50 [5] was 0.668 µM. It also gave a TGI [5] of 14.4 µM, a GI50 [6] of 0.455 µM and a TGI [6] of 17.6 µM. For the same molecule, the GI50 [7] was 0.696 µM, the TGI [7] was 13.7 µM and the GI50 [8] was 0.763 µM. The TGI [8] was 11 µM, the GI50 [9] was 0.494 µM and the TGI [9] was 17.3 µM. For the same molecule, the GI50 [10] was 4.36 µM, the TGI [10] was 22.5 µM and the GI50 [11] was 0.336 µM. It also gave a TGI [11] of 2.56 µM, a GI50 [12] of 0.398 µM and a TGI [12] of 2.04 µM. The GI50 [13] was 2.6 µM, the TGI [13] was 20.6 µM and the GI50 [14] was 0.297 µM. For the same molecule, the TGI [14] was 11 µM, the GI50 [15] was 0.293 µM and the TGI [15] was greater than 100 µM. It also gave a GI50 [16] of 0.385 µM, a TGI [16] of 11.6 µM and a GI50 [17] of 0.384 µM. For the same molecule, the TGI [17] was 25.2 µM, the GI50 [18] was 0.273 µM and the TGI [18] was 0.914 µM. It also gave a GI50 [19] of 0.741 µM, a TGI [19] of 16.5 µM and a GI50 [20] of 0.673 µM. For the same molecule, the TGI [20] was 14.7 µM, the GI50 [21] was 0.338 µM and the TGI [21] was 28.7 µM. For the same molecule, the GI50 [22] was 0.434 µM, the TGI [22] was 15.5 µM and the GI50 [23] was 0.48 µM. For the same molecule, the TGI [23] was 20.2 µM, the GI50 [24] was 0.373 µM and the TGI [24] was 11.2 µM. The GI50 [25] was 0.374 µM, the TGI [25] was 5.25 µM and the GI50 [26] was 0.811 µM. The TGI [26] was 18.2 µM, the GI50 [27] was 0.237 µM and the TGI [27] was 0.663 µM. The GI50 [28] was 0.51 µM, the TGI [28] was 15 µM and the GI50 [29] was 0.309 µM. It also gave a TGI [29] of 4.65 µM, a GI50 [30] of 0.38 µM and a TGI [30] of 17.8 µM. For the same molecule, the GI50 [31] was 0.255 µM, the TGI [31] was 0.752 µM and the GI50 [32] was 0.841 µM. For the same molecule, the TGI [32] was 14.8 µM, the GI50 [33] was 0.419 µM and the TGI [33] was 17.8 µM. The GI50 [34] was 0.268 µM, the TGI [34] was 0.765 µM and the GI50 [35] was 0.482 µM. The TGI [35] was 4.21 µM, the GI50 [36] was 0.601 µM and the TGI [36] was 22.5 µM. For the same molecule, the GI50 [37] was 0.429 µM, the TGI [37] was 19.5 µM and the GI50 [38] was 0.292 µM. For the same molecule, the TGI [38] was 11.6 µM, the GI50 [39] was 0.371 µM and the TGI [39] was 12 µM. For the same molecule, the GI50 [40] was 0.388 µM, the TGI [40] was 7.93 µM and the GI50 [41] was 0.439 µM. The TGI [41] was 1.66 µM, the GI50 [42] was 0.278 µM and the TGI [42] was 5.27 µM. For the same molecule, the GI50 [43] was 1.29 µM, the TGI [43] was 12.8 µM and the GI50 [44] was 0.409 µM. It also gave a TGI [44] of 12.2 µM, a GI50 [45] of 0.382 µM and a TGI [45] of 3.51 µM. The GI50 [46] was 0.296 µM, the TGI [46] was 0.872 µM and the GI50 [47] was 0.336 µM. For the same molecule, the TGI [47] was 1.08 µM, the GI50 [48] was 0.761 µM and the TGI [48] was 11.9 µM. It also gave a GI50 [49] of 0.466 µM, a TGI [49] of 32.9 µM and a GI50 [50] of 0.552 µM. It also gave a TGI [50] of 10.6 µM, a GI50 [51] of 0.448 µM and a TGI [51] of 11.3 µM. The GI50 [52] was 0.441 µM, the TGI [52] was 15.1 µM and the GI50 [53] was 0.441 µM. The TGI [53] was 16.3 µM, the GI50 [54] was 0.293 µM and the TGI [54] was 13.1 µM. The GI50 [55] was 0.644 µM, the TGI [55] was 15.3 µM and the GI50 [56] was 0.247 µM. It also gave a TGI [56] of 0.718 µM, a GI50 [57] of 0.275 µM and a TGI [57] of 0.852 µM. The GI50 [58] was 0.396 µM and the TGI [58] was 10.6 µM.
In the case of `CC(C)[C@@H]1CC[C@@H]2[C@@H]1[C@H](OC(=O)/C=C/c1ccccc1)[C@]1(C(C)C)C[C@@H](OC(=O)CO)[C@@]2(C)O1`, the GI50 [1] is reported as 5.15 µM, the TGI [1] is reported as 9.93 µM and the GI50 [2] is reported as 5.15 µM. It also gave a TGI [2] of 10.2 µM, a GI50 [3] of 5.65 µM and a TGI [3] of 10.6 µM. The GI50 [4] was 5.37 µM, the TGI [4] was 10.8 µM and the GI50 [5] was 3.39 µM. The TGI [5] was 8.04 µM, the GI50 [6] was 6.26 µM and the TGI [6] was 12.9 µM. The GI50 [7] was 6.46 µM, the TGI [7] was 15.4 µM and the GI50 [8] was 5.38 µM. It also gave a TGI [8] of 10.4 µM, a GI50 [9] of 6.94 µM and a TGI [9] of 14.9 µM. For the same molecule, the GI50 [10] was 7.83 µM, the TGI [10] was 17.6 µM and the GI50 [11] was 6.92 µM. For the same molecule, the TGI [11] was 14.4 µM, the GI50 [12] was 5.96 µM and the TGI [12] was 10.8 µM. The GI50 [13] was 4.89 µM, the TGI [13] was 9.87 µM and the GI50 [14] was 5.83 µM. For the same molecule, the TGI [14] was 12.1 µM, the GI50 [15] was 7.91 µM and the TGI [15] was 18.7 µM. For the same molecule, the GI50 [16] was 6.15 µM, the TGI [16] was 11.7 µM and the GI50 [17] was 5.27 µM. For the same molecule, the TGI [17] was 12.5 µM, the GI50 [18] was 5.07 µM and the TGI [18] was 9.56 µM. For the same molecule, the GI50 [19] was 4.02 µM, the TGI [19] was 9.03 µM and the GI50 [20] was 5.27 µM. The TGI [20] was 10.9 µM, the GI50 [21] was 10.4 µM and the TGI [21] was 24.1 µM. It also gave a GI50 [22] of 0.133 µM, a TGI [22] of 6.73 µM and a GI50 [23] of 7.44 µM. It also gave a TGI [23] of 16.5 µM, a GI50 [24] of 5.36 µM and a TGI [24] of 10.2 µM. The GI50 [25] was 7.71 µM, the TGI [25] was 17.6 µM and the GI50 [26] was 4.34 µM. It also gave a TGI [26] of 8.88 µM, a GI50 [27] of 0.0795 µM and a TGI [27] of 5 µM. It also gave a GI50 [28] of 10.3 µM, a TGI [28] of 32.5 µM and a GI50 [29] of 7.02 µM. The TGI [29] was 13.4 µM, the GI50 [30] was 3.46 µM and the TGI [30] was 8.5 µM. It also gave a GI50 [31] of 5.25 µM, a TGI [31] of 10.2 µM and a GI50 [32] of 0.011 µM. It also gave a TGI [32] of 0.0857 µM, a GI50 [33] of 5.97 µM and a TGI [33] of 11.1 µM. The GI50 [34] was 3.31 µM, the TGI [34] was 8.31 µM and the GI50 [35] was 0.0375 µM. It also gave a TGI [35] of 4.38 µM, a GI50 [36] of 0.0259 µM and a TGI [36] of 9.86 µM. The GI50 [37] was 6.9 µM, the TGI [37] was 15.2 µM and the GI50 [38] was 4.88 µM. For the same molecule, the TGI [38] was 10.5 µM, the GI50 [39] was 4.94 µM and the TGI [39] was 9.97 µM. For the same molecule, the GI50 [40] was 4.72 µM, the TGI [40] was 10 µM and the GI50 [41] was 5.31 µM. The TGI [41] was 12.2 µM, the GI50 [42] was 8.07 µM and the TGI [42] was 18.4 µM. The GI50 [43] was 6.35 µM, the TGI [43] was 11.7 µM and the GI50 [44] was 7.07 µM. For the same molecule, the TGI [44] was 14.6 µM, the GI50 [45] was 6.88 µM and the TGI [45] was 14.1 µM. It also gave a GI50 [46] of 6.12 µM, a TGI [46] of 12.8 µM and a GI50 [47] of 5.54 µM. The TGI [47] was 10.6 µM, the GI50 [48] was 0.00824 µM and the TGI [48] was 4.25 µM. The GI50 [49] was 0.00325 µM, the TGI [49] was 0.0136 µM and the GI50 [50] was 6.61 µM. It also gave a TGI [50] of 14.4 µM, a GI50 [51] of 5.79 µM and a TGI [51] of 11.3 µM. The GI50 [52] was 4.34 µM, the TGI [52] was 8.8 µM and the GI50 [53] was 6.45 µM. The TGI [53] was 14.5 µM, the GI50 [54] was 6.69 µM and the TGI [54] was 11.9 µM. For the same molecule, the GI50 [55] was 6.79 µM, the TGI [55] was 12.5 µM and the GI50 [56] was 6.19 µM. For the same molecule, the TGI [56] was 13.2 µM, the GI50 [57] was 0.00806 µM and the TGI [57] was 0.0288 µM. It also gave a GI50 [58] of 4.55 µM and a TGI [58] of 9.23 µM.
